# Measurements published in the supplement of paper PMC4862054.
# Where “and” joins values, the source holds several entries; their conditions need not be identical. Equal values may be shown once.
# Test system: DU-4475
# Assay: normalised viability (% of control), CellTiter-Blue; higher = more viable cells (about 100 = DMSO control)
# Conditions: 10 nM; incubation time: 72 h
# Description: (§1)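 DSRT, CellTiter-Blue viability, 72 h incubation. Signal is normalised to DMSO and benzethonium chloride controls. Value is the normalised response at dose 3.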
row,Structure (SMILES),normalised viability [%]
1,NCCCNCCSP(=O)(O)O [Amifostine],97.3

# Test system: HCC1143
# Assay: as above
# Conditions: 9.9 nM; incubation time: 72 h
# Description: as §1
row,Structure (SMILES),normalised viability [%]
1,CCN(CC)CCCC(C)Nc1c2ccc(Cl)cc2nc2ccc(OC)cc12 (stereo not given) [Mepacrine],130

# Same assay, conditions: 10 nM; incubation time: 72 h
row,Structure (SMILES),normalised viability [%]
1,O=C(/C=C/c1cccnc1)NCCCCC1CCN(C(=O)c2ccccc2)CC1 [FK-866],43.2
2,CC[C@@H]1C(=O)N(C)c2cnc(Nc3ccc(C(=O)NC4CCN(C)CC4)cc3OC)nc2N1C1CCCC1 [BI 2536],62.8

# Same assay, conditions: 100 nM; incubation time: 72 h
row,Structure (SMILES),normalised viability
1,Nc1nc(F)nc2c1ncn2[C@@H]1O[C@H](CO)[C@@H](O)[C@@H]1O [Fludarabine],83%
2,Nc1ncn([C@H]2C[C@H](O)[C@@H](CO)O2)c(=O)n1 [Decitabine],82.4% and 79.1%
3,O=C(O)C1(C(=O)O)CCC1.[NH2-].[NH2-].[Pt+2] [Carboplatin],86.4%
4,N#Cc1ccc(C(c2ccc(C#N)cc2)n2cncn2)cc1 [Letrozole],77.9%
5,C1CN1c1nc(N2CC2)nc(N2CC2)n1 [Triethylenemelamine],105%
6,CCCS(=O)(=O)Nc1ccc(F)c(C(=O)c2c[nH]c3ncc(-c4ccc(Cl)cc4)cc23)c1F [Vemurafenib],80.1%
7,O=C(O)C(=O)O.[NH-][C@@H]1CCCC[C@H]1[NH-].[Pt+2] [Oxaliplatin],98.2%
8,CCN(CC)CCCC(C)Nc1c2ccc(Cl)cc2nc2ccc(OC)cc12 (stereo not given) [Mepacrine],106%
9,Cc1ccc(-c2cc(C(F)(F)F)nn2-c2ccc(S(N)(=O)=O)cc2)cc1 [Celecoxib],95.9%
10,NCCCNCCSP(=O)(O)O [Amifostine],78.3%

# Test system: HCC1599
# Assay: as above
# Conditions: 9.9 nM; incubation time: 72 h
# Description: as §1
row,Structure (SMILES),normalised viability [%]
1,CCN(CC)CCCC(C)Nc1c2ccc(Cl)cc2nc2ccc(OC)cc12 (stereo not given) [Mepacrine],88.2

# Same assay, conditions: 10 nM; incubation time: 72 h
row,Structure (SMILES),normalised viability [%]
1,O=C(/C=C/c1cccnc1)NCCCCC1CCN(C(=O)c2ccccc2)CC1 [FK-866],74.7
2,CC[C@@H]1C(=O)N(C)c2cnc(Nc3ccc(C(=O)NC4CCN(C)CC4)cc3OC)nc2N1C1CCCC1 [BI 2536],90.9

# Same assay, conditions: 100 nM; incubation time: 72 h
row,Structure (SMILES),normalised viability
1,Nc1nc(F)nc2c1ncn2[C@@H]1O[C@H](CO)[C@@H](O)[C@@H]1O [Fludarabine],105%
2,Nc1ncn([C@H]2C[C@H](O)[C@@H](CO)O2)c(=O)n1 [Decitabine],108% and 99.9%
3,O=C(O)C1(C(=O)O)CCC1.[NH2-].[NH2-].[Pt+2] [Carboplatin],92.8%
4,N#Cc1ccc(C(c2ccc(C#N)cc2)n2cncn2)cc1 [Letrozole],104%
5,C1CN1c1nc(N2CC2)nc(N2CC2)n1 [Triethylenemelamine],106%
6,CCCS(=O)(=O)Nc1ccc(F)c(C(=O)c2c[nH]c3ncc(-c4ccc(Cl)cc4)cc23)c1F [Vemurafenib],98%
7,O=C(O)C(=O)O.[NH-][C@@H]1CCCC[C@H]1[NH-].[Pt+2] [Oxaliplatin],96.1%
8,CCN(CC)CCCC(C)Nc1c2ccc(Cl)cc2nc2ccc(OC)cc12 (stereo not given) [Mepacrine],88.9%
9,Cc1ccc(-c2cc(C(F)(F)F)nn2-c2ccc(S(N)(=O)=O)cc2)cc1 [Celecoxib],90.2%
10,NCCCNCCSP(=O)(O)O [Amifostine],98.2%

# Test system: HCC1937
# Assay: as above
# Conditions: 9.9 nM; incubation time: 72 h
# Description: as §1
row,Structure (SMILES),normalised viability [%]
1,CCN(CC)CCCC(C)Nc1c2ccc(Cl)cc2nc2ccc(OC)cc12 (stereo not given) [Mepacrine],99.4

# Same assay, conditions: 10 nM; incubation time: 72 h
row,Structure (SMILES),normalised viability [%]
1,O=C(/C=C/c1cccnc1)NCCCCC1CCN(C(=O)c2ccccc2)CC1 [FK-866],91.1
2,CC[C@@H]1C(=O)N(C)c2cnc(Nc3ccc(C(=O)NC4CCN(C)CC4)cc3OC)nc2N1C1CCCC1 [BI 2536],25.9

# Same assay, conditions: 100 nM; incubation time: 72 h
row,Structure (SMILES),normalised viability
1,Nc1nc(F)nc2c1ncn2[C@@H]1O[C@H](CO)[C@@H](O)[C@@H]1O [Fludarabine],110%
2,Nc1ncn([C@H]2C[C@H](O)[C@@H](CO)O2)c(=O)n1 [Decitabine],101% and 108%
3,O=C(O)C1(C(=O)O)CCC1.[NH2-].[NH2-].[Pt+2] [Carboplatin],94.5%
4,N#Cc1ccc(C(c2ccc(C#N)cc2)n2cncn2)cc1 [Letrozole],97.4%
5,C1CN1c1nc(N2CC2)nc(N2CC2)n1 [Triethylenemelamine],88.5%
6,CCCS(=O)(=O)Nc1ccc(F)c(C(=O)c2c[nH]c3ncc(-c4ccc(Cl)cc4)cc23)c1F [Vemurafenib],96.4%
7,O=C(O)C(=O)O.[NH-][C@@H]1CCCC[C@H]1[NH-].[Pt+2] [Oxaliplatin],89.1%
8,CCN(CC)CCCC(C)Nc1c2ccc(Cl)cc2nc2ccc(OC)cc12 (stereo not given) [Mepacrine],87.4%
9,Cc1ccc(-c2cc(C(F)(F)F)nn2-c2ccc(S(N)(=O)=O)cc2)cc1 [Celecoxib],94.9%
10,NCCCNCCSP(=O)(O)O [Amifostine],85.5%

# Test system: HDQ-P1
# Assay: as above
# Conditions: 0.99 nM; incubation time: 72 h
# Description: as §1
row,Structure (SMILES),normalised viability [%]
1,CCN(CC)CCCC(C)Nc1c2ccc(Cl)cc2nc2ccc(OC)cc12 (stereo not given) [Mepacrine],117

# Same assay, conditions: 1 nM; incubation time: 72 h
row,Structure (SMILES),normalised viability [%]
1,O=C(/C=C/c1cccnc1)NCCCCC1CCN(C(=O)c2ccccc2)CC1 [FK-866],120
2,CC[C@@H]1C(=O)N(C)c2cnc(Nc3ccc(C(=O)NC4CCN(C)CC4)cc3OC)nc2N1C1CCCC1 [BI 2536],102

# Same assay, conditions: 10 nM; incubation time: 72 h
row,Structure (SMILES),normalised viability
1,Nc1nc(F)nc2c1ncn2[C@@H]1O[C@H](CO)[C@@H](O)[C@@H]1O [Fludarabine],103%
2,Nc1ncn([C@H]2C[C@H](O)[C@@H](CO)O2)c(=O)n1 [Decitabine],109% and 95.9%
